In patent publication US20220396569A1 (Carmot Therapeutics, Inc., priority 2021, published 2022):
pEC50: −log10 of the molar value.

Target: T1, human GLP-1 receptor (Homo sapiens, UniProt P43220)
T1 construct: expressed in transfected cells
Assay: GLP-1R cAMP Assay (HitHunter cAMP accumulation)
Type: cell-based
Conditions: cAMP accumulation, CHO cells stably overexpressing human GLP-1 receptor, 30 min treatment; read-out: EC50
Outline: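 CHO cells stably expressing human GLP-1R, 10,000 cells/well in HBSS with 10 mM HEPES and 625 μM IBMX, were mixed with anti-cAMP antibody reagent. Compound was applied as a 20-point dose response in triplicate for 30 min. After lysis and overnight detection, luminescence was read and dose-response curves analysed.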

T1 sequence (P43220 24-463): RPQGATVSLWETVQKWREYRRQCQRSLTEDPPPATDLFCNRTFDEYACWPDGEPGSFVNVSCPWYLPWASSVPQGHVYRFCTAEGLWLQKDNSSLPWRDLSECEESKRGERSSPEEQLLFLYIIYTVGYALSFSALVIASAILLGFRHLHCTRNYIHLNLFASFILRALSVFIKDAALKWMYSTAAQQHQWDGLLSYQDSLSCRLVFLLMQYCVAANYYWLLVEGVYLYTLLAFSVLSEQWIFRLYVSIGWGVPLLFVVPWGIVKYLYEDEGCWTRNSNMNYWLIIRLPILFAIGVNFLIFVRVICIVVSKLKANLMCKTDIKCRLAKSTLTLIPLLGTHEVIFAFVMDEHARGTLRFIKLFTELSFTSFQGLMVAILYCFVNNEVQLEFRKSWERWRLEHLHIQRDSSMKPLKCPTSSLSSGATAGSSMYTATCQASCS

| pEC50 | Structure (SMILES) |
| --- | --- |
| < 6.30 | C[C@H]1[C@@H](Oc2ccnc(COc3ccc(F)cc3C#N)n2)CN1Cc1nc2ccc(C(=O)O)cc2n1C[C@@H]1CCO1 [Compound 549, 2-{[(2S,3S)-3-({2-[(2-cyano-4-fluorophenoxy)methyl]pyrimidin-4-yl}oxy)-2-methylazetidin-1-yl]methyl}-1-{[(2S)-oxetan-2-yl]methyl}-1H-1,3-benzodiazole-6-carboxylic acid] |
| > 7.30 | O=C(O)c1cc(F)c2nc(CN3CC=C(c4ccc(F)c(COc5ccc(Cl)cc5F)n4)C3)n(C[C@@H]3CCO3)c2c1 [Compound 413, 2-[(3-{6-[(4-chloro-2-fluorophenoxy)methyl]-5-fluoropyridin-2-yl}-2,5-dihydro-1H-pyrrol-1-yl)methyl]-4-fluoro-1-{[(2S)-oxetan-2-yl]methyl}-1H-1,3-benzodiazole-6-carboxylic acid] |
| > 7.30 | CCn1cncc1Cn1c(CN2C[C@H](Oc3ccnc(COc4ccc(Cl)cc4Cl)c3)[C@@H]2C)nc2ccc(C(=O)O)cc21 [Compound 273, 2-{[(2S,3S)-3-({2-[(2,4-dichlorophenoxy)methyl]pyridin-4-yl}oxy)-2-methylazetidin-1-yl]methyl}-1-[(1-ethyl-1H-imidazol-5-yl)methyl]-1H-1,3-benzodiazole-6-carboxylic acid] |
| > 7.30 | O=C(O)c1ccc2nc(CN3CC[C@H](Oc4ccnc(COc5ccc(Cl)cc5F)n4)C3)n(C[C@@H]3CCO3)c2c1 [Example 360, 2-(((S)-3-((2-((4-Chloro-2-fluorophenoxy)methyl)pyrimidin-4-yl)oxy)pyrrolidin-1-yl)methyl)-1-(((S)-oxetan-2-yl)methyl)-1H-benzo[d]imidazole-6-carboxylic acid] |
| > 7.30 | CCn1cncc1Cn1c(CN2CC[C@H](Oc3ccnc(COc4ccc(Cl)cc4Cl)c3)C2)nc2ccc(C(=O)O)cc21 [Example 244, (S)-2-((3-((2-((2,4-Dichlorophenoxy)methyl)pyridin-4-yl)oxy)pyrrolidin-1-yl)methyl)-1-((1-ethyl-1H-imidazol-5-yl)methyl)-1H-benzo[d]imidazole-6-carboxylic acid] |
| > 7.30 | O=C(O)c1ccc2nc(Cc3ccc(Oc4ccnc(COc5ccc(Cl)cc5F)c4)cc3F)n(C[C@@H]3CCO3)c2c1 [Compound 466, 2-{[4-({2-[(4-chloro-2-fluorophenoxy)methyl]pyridin-4-yl}oxy)-2-fluorophenyl]methyl}-1-{[(2S)-oxetan-2-yl]methyl}-1H-1,3-bcnzodiazole-6-carboxylic acid] |
| > 7.30 | CCn1cncc1Cn1c(CN2CC(Cc3ccnc(COc4ccc(Cl)cc4Cl)c3)C2)nc2ccc(C(=O)O)cc21 [Compound 176, 2-{[3-({2-[(2,4-dichlorophenoxy)methyl]pyridin-4-yl}methyl)azetidin-1-yl]methyl}-1-[(1-ethyl-1H-imidazol-5-yl)methyl]-1H-1,3-benzodiazole-6-carboxylic acid] |
| > 7.30 | CCn1cncc1Cn1c(CN2CCC(Cn3ccc(COc4ccc(Cl)cc4C#N)n3)CC2)nc2ccc(C(=O)O)cc21 [Compound 282, 2-{[4-({3-[(4-chloro-2-cyanophenoxy)methyl]-1H-pyrazol-1-yl}methyl)piperidin-1-yl]methyl}-1-[(1-ethyl-1H-imidazol-5-yl)methyl]-1H-1,3-benzodiazole-6-carboxylic acid] |
| > 7.30 | CCn1cncc1Cn1c(Cc2ccc(Oc3ccnc(COc4ccc(Cl)cc4F)c3)cc2F)nc2ccc(C(=O)O)cc21 [Compound 462, 2-{[4-({2-[(4-chloro-2-fluorophenoxy)methyl]pyridin-4-yl}oxy)-2-fluorophenyl]methyl}-1-[(1-ethyl-1H-imidazol-5-yl)methyl]-1H-1,3-benzodiazole-6-carboxylic acid] |
| > 7.30 | O=C(O)c1ccc2nc(CN3CCC(c4cc(COc5ccc(Cl)cc5F)ccn4)C3)n(Cc3ncco3)c2c1 (centres unmarked) [Compound 398, 2-[(3-{4-[(4-chloro-2-fluorophenoxy)methyl]pyridin-2-yl}pyrrolidin-1-yl)methyl]-1-[(1,3-oxazol-2-yl)methyl]-1H-1,3-benzodiazole-6-carboxylic acid] |
| > 7.30 | CCn1cncc1Cn1c(CN2CC(=Cc3ccnc(COc4ccc(Cl)cc4C#N)c3)C2)nc2ccc(C(=O)O)cc21 [Compound 226, 2-{[3-({2-[(4-chloro-2-cyanophenoxy)methyl]pyridin-4-yl}methylidene)azetidin-1-yl]methyl}-1-[(1-ethyl-1H-imidazol-5-yl)methyl]-1H-1,3-benzodiazole-6-carboxylic acid] |
| > 7.30 | N#Cc1ccc(OCc2nc(C34CC3CN(Cc3nc5ccc(C(=O)O)cc5n3C[C@@H]3CCO3)C4)ccc2F)c(Cl)c1 (stereo partly drawn) [Compound 524, 2-[(1-{6-[(2-chloro-4-cyanophenoxy)methyl]-5-fluoropyridin-2-yl}-3-azabicyclo[3.1.0]hexan-3-yl)methyl]-1-{[(2S)-oxetan-2-yl]methyl}-1H-1,3-benzodiazole-6-carboxylic acid] |
| > 7.30 | O=C(O)c1ccc2nc(CN3CC[C@H](Oc4ccnc(COc5ccc(C(F)F)cc5F)c4)C3)n(C[C@@H]3CCO3)c2c1 [Compound 298, 2-{[(3S)-3-[(2-{[4-(difluoromethyl)-2-fluorophenoxy]methyl}pyridin-4-yl)oxy]pyrrolidin-1-yl]methyl}-1-{[(2S)-oxetan-2-yl]methyl}-1H-1,3-benzodiazole-6-carboxylic acid] |
| > 7.30 | N#Cc1ccc(OCc2nccc(Oc3ccc(Cc4nc5c(F)cc(C(=O)O)cc5n4C[C@@H]4CCO4)c(F)c3)n2)c(F)c1 [Compound 467] |
| > 7.30 | O=C(O)c1cc(F)c2nc(CN3CC[C@@H](c4ccc(F)c(COc5ccc(Cl)cc5F)n4)C3)n(C[C@@H]3CCO3)c2c1 [Compound 453, 2-{[(3R)-3-{6-[(4-chloro-2-fluorophenoxy)methyl]-5-fluoropyridin-2-yl}pyrrolidin-1-yl]methyl}-4-fluoro-1-{[(2S)-oxetan-2-yl]methyl}-1H-1,3-benzodiazole-6-carboxylic acid] |
| > 7.30 | N#Cc1ccc(OCc2cc(Oc3cnc(Cc4nc5c(F)cc(C(=O)O)cc5n4C[C@@H]4CCO4)c(F)c3)ccn2)c(F)c1 [Compound 542, (S)-2-((5-((2-((4-Cyano-2-fluorophenoxy)methyl)pyridin-4-yl)oxy)-3-fluoropyridin-2-yl)methyl)-4-fluoro-1-(oxetan-2-ylmethyl)-1H-benzo[d]imidazole-6-carboxylic acid] |
| > 7.30 | O=C(O)c1ccc2nc(CN3CCC(c4cc(COc5ccc(Cl)cc5Cl)ccn4)C3)n(C[C@@H]3CCO3)c2c1 (some centres unmarked) [Compound 391] |
| > 7.30 | CCn1cncc1Cn1c(CN2CC(Cc3cccc(COc4ccc(Cl)cc4Cl)c3)C2)nc2ccc(C(=O)O)cc21 [Example 197, 2-((3-(3-((2,4-Dichlorophenoxy)methyl)benzyl)azetidin-1-yl)methyl)-1-((1-ethyl-1H-imidazol-5-yl)methyl)-1H-benzo[d]imidazole-6-carboxylic acid] |
| > 7.30 | N#Cc1ccc(OCc2nc(N3CC[C@@H](Cc4nc5ccc(C(=O)O)cc5n4C[C@@H]4CCO4)C3)ccc2F)c(F)c1 [Compound 533, 2-(((S)-1-(6-((4-Cyano-2-fluorophenoxy)methyl)-5-fluoropyridin-2-yl)pyrrolidin-3-yl)methyl)-1-(((S)-oxetan-2-yl)methyl)-1H-benzo[d]imidazole-6-carboxylic acid] |
| > 7.30 | O=C(O)c1cc(F)c2nc(CN3CC=C(c4nc(COc5ccc(Cl)cc5Cl)ccc4F)C3)n(C[C@@H]3CCO3)c2c1 [Compound 451, 2-[(3-{6-[(2,4-dichlorophenoxy)methyl]-3-fluoropyridin-2-yl}-2,5-dihydro-1H-pyrrol-1-yl)methyl]-4-fluoro-1-{[(2S)-oxetan-2-yl]methyl}-1H-1,3-benzodiazole-6-carboxylic acid] |
| > 7.30 | O=C(O)c1ccc2nc(Cc3cc(F)c(Oc4ccnc(COc5ccc(Cl)cc5F)c4)cc3F)n(C[C@@H]3CCO3)c2c1 [Compound 536, (S)-2-(4-((2-((4-Chloro-2-fluorophenoxy)methyl)pyridin-4-yl)oxy)-2,5-difluorobenzyl)-1-(oxetan-2-ylmethyl)-1H-benzo[d]imidazole-6-carboxylic acid] |
| > 7.30 | O=C(O)c1cc(F)c2nc(Cc3ccc(Oc4ccnc(COc5ccc(Cl)cc5F)c4)cc3F)n(C[C@@H]3CCO3)c2c1 [Example 459, (S)-2-(4-((2-((4-Chloro-2-fluorophenoxy)methyl)pyridin-4-yl)oxy)-2-fluorobenzyl)-4-fluoro-1-(oxetan-2-ylmethyl)-1H-benzo[d]imidazole-6-carboxylic acid] |
| > 7.30 | O=C(O)c1ccc2nc(CN3CC=C(c4ccnc(COc5ccc(Cl)cc5F)c4)C3)n(C[C@@H]3CCO3)c2c1 [Compound 403, 2-[(3-{2-[(4-chloro-2-fluorophenoxy)methyl]pyridin-4-yl}-2,5-dihydro-1H-pyrrol-1-yl)methyl]-1-{[(2S)-oxetan-2-yl]methyl}-1H-1,3-benzodiazole-6-carboxylic acid] |
| > 7.30 | CCn1cncc1Cn1c(CN2CC(Oc3ccnc(COc4ccc(Cl)cc4C#N)c3)C2)nc2ccc(C(=O)O)cc21 [Compound 211, 2-{[3-({2-[(4-chloro-2-cyanophenoxy)methyl]pyridin-4-yl}oxy)azetidin-1-yl]methyl}-1-[(1-ethyl-1H-imidazol-5-yl)methyl]-1H-1,3-benzodiazole-6-carboxylic acid] |
| > 7.30 | CCn1cncc1Cn1c(CN2CCC(Cc3cccc4c3OC(C)(c3ccc(Cl)cc3F)O4)CC2)nc2ccc(C(=O)O)cc21 (centres unmarked) [Compound 209] |
| > 7.30 | O=C(O)c1ccc2nc(CN3CC=C(c4cccc(COc5ccc(Cl)cc5Cl)c4)C3)n(C[C@@H]3CCO3)c2c1 [Compound 401, 2-[(3-{3-[(2,4-dichlorophenoxy)methyl]phenyl}-2,5-dihydro-1H-pyrrol-1-yl)methyl]-1-{[(2S)-oxetan-2-yl]methyl}-1H-1,3-benzodiazole-6-carboxylic acid] |
